Data taken from a melting point compilation (Tetko et al.; mined from patent text by program, amines drawn as free bases though some values may be those of a salt).

`Cc1nc(C=O)c(C)[nH]1` showed a melting point of 164 to 166 °C. `O=[N+]([O-])c1cc([N+](=O)[O-])c(Nc2ccc3ccccc3c2[N+](=O)[O-])c(C(F)(F)F)c1` showed a melting point of 213 to 215 °C. In the case of `CC(=O)Nc1cc2c(cc1Br)C(Nc1ccc(C(=O)OC(C)(C)C)c(F)c1)CC2` (stereo not given), the melting point is reported as greater than 70 °C. For `Oc1ccc(-c2nnc(CCCCCCCc3ccccc3)o2)cc1`, the melting point was 138 to 140 °C. In the case of `Clc1ncc(-c2ccsc2)cn1`, the melting point is reported as 154 to 157 °C. Compound `COc1cc(Oc2cccc(C(F)(F)F)c2)nc(C(=O)NN=C(C)C)c1` has a melting point of 134 to 136 °C. With `CN1C(=O)Cc2ccccc21` the melting point was 83 to 84.5 °C. `CCCc1cc(C(=O)O)n(C)n1` gave a melting point of 150 to 154 °C. `CCOC(=O)c1ccc([C@H]2CC[C@H](NCc3ccccc3)CC2)cc1` gave a melting point of 74 to 76 °C. With `ClCCCCOc1ccccc1/C=C/c1nc2ccccc2o1` the melting point was 92 to 93 °C. In the case of `CNS(=O)(=O)c1cc(C(C)(C)C)cc(CNC(C)=O)c1O`, the melting point is reported as 173 to 174 °C. Work on `COC(=O)c1ccc(CN(C(=O)OC(C)(C)C)c2ccc(C3CCCCC3)cc2)cc1` yielded a melting point of 99.5 to 101 °C. In the case of `Cc1cn(-c2cc(NC(=O)n3ccc4cc(Oc5cc(CC(N)=O)ncn5)ccc43)cc(C(F)(F)F)c2)cn1`, the melting point is reported as 223 to 229 °C. Compound `CC1(C)C(C=C(Cl)Cl)C1C(=O)O` (stereo not given) has a melting point of 86 °C. `Cc1nc(C(C)(C)C)c[nH]1` showed a melting point of 155 to 156 °C. In the case of `CN(C)CCC1=Cc2ccccc2N(C)c2ccc(Cl)cc21`, the melting point is reported as 82 °C. For `N#CCNS(=O)(=O)c1ccc([N+](=O)[O-])cc1`, the melting point was 115 to 120 °C. In the case of `Cc1csc(Cc2ccc([N+](=O)[O-])cc2)n1`, the melting point is reported as 81 to 82 °C. For `O=C(Nc1ccccc1C(c1ccc(O)cc1)c1ccc(O)cc1)c1ccc([N+](=O)[O-])cc1`, the melting point was 258 to 259 °C. Compound `CCCCc1nc2c(N)nc3ccccc3c2n1CCCCNC(=O)Nc1ccccc1` has a melting point of 185 to 187 °C. Compound `N=C(N)c1ccc(N2CC(CN3CCN(CCC(=O)O)CC3)OC2=O)cc1` (stereo not given) has a melting point of 269 °C. For `CN(C)C=NS(=O)(=O)c1cc(CCNC(=O)C(F)(F)F)ccc1OCc1ccccc1`, the melting point was 103 °C. Compound `O=C(Nc1c(OCc2ccccc2)cccc1C(=O)O)c1ccccc1` has a melting point of 114 to 116 °C. `N=C(CSc1nc2cc(Cl)ccc2s1)NO` gave a melting point of 155 to 157 °C. For `O=C1C2=C(NC3(OCCO3)C(c3ccccc3)=N2)c2ccccc21`, the melting point was 296 °C. With `CCc1cccc(C)c1CNc1cc(Br)cc2c1nc(C)n2C` the melting point was 145 to 147 °C. For `NC(=O)c1cc2c(Oc3ccc(Cl)c(F)c3)cncc2s1`, the melting point was 227 to 228 °C. `c1ccc2c(c1)c1c(N3CCCC3)nc(N3CCCC3)nc1n2CCN1CCOCC1` showed a melting point of 138 to 139 °C. `CCOc1ccc(C2=NN(C(=O)c3cccc([N+](=O)[O-])c3)CCC2)cc1OCC` gave a melting point of 119 to 120 °C. With `CN(CCCNc1ncc(Cc2ccc(Br)cc2)c(=O)[nH]1)c1ccccn1` the melting point was 178 to 179 °C. `CN1CCN(c2n[nH]c3cc(F)ccc23)CC1` gave a melting point of 164 to 166 °C. In the case of `COC(=O)CCCc1cc2nc(Cl)ccc2n1S(=O)(=O)c1ccc2snnc2c1`, the melting point is reported as 219 °C. Work on `CCOC(=O)CCCCCOc1ccc(C(=O)Nc2ccccc2Sc2ccccc2-c2nnn[nH]2)cc1` yielded a melting point of 137 to 138 °C. Work on `CCCOc1ccccc1-c1nc2c(CCCc3ccccc3)cccc2c(=O)[nH]1` yielded a melting point of 89 °C. `O=C1NC(=O)C(Sc2ccc(Br)cc2)S1` (stereo not given) gave a melting point of 115 to 117 °C. `COC(=O)c1cc(-c2nc(COc3ccc(CCl)cc3OC)c(C)o2)ccc1OS(C)(=O)=O` showed a melting point of 146 to 147 °C. `CC#CCOc1cc(Nc2cccc(F)c2F)ncn1` gave a melting point of 148 °C. With `O=C(c1ccc(SCCO)c([N+](=O)[O-])c1)c1ccc(SCCO)c([N+](=O)[O-])c1` the melting point was 193 to 197 °C. `OC(CCCN1CCN(c2ncc(F)cn2)CC1)(c1ccc(F)cc1)C1CCCCC1` (stereo not given) gave a melting point of 53 to 59 °C. Work on `CCCCc1nc(Cl)c(C(N)=O)n1Cc1ccc(-c2ccccc2C(=O)O)cc1` yielded a melting point of 200 to 202 °C. Work on `CCCc1cc2c(NCCc3ccccc3)ncnc2s1` yielded a melting point of 110 °C. Work on `Nc1ccc2c3c(cccc13)C(=O)N(O)C2=O` yielded a melting point greater than 360 °C. Work on `COc1cn(-c2cccc(N3CCOCC3)c2F)nc(-c2ccnn2-c2ccccc2)c1=O` yielded a melting point of 187 to 189 °C. Compound `CC(C)(C)OC(=O)NC(C)(C)c1ccc(-c2nc(Nc3ccc(CCn4ccnc4)cc3)ncc2C#N)cc1` has a melting point of 124 °C. `CC(C)(C)OC(=O)Nc1ccc(-c2ccccc2F)cc1NC(=O)CC(=O)c1ccc(C#N)s1` gave a melting point of 201 °C. `CC(=O)OC1=C(CCCCCCCCC[Si](C)(C)C)C(=O)c2ccccc2C1=O` gave a melting point of 45 to 47 °C. `COc1ccc(CN2CCN(CCC(c3ccccc3)c3ccccc3)CC2)cc1OC` gave a melting point of 98 to 104 °C. In the case of `OCCOC(c1ccccc1)c1ccccc1`, the melting point is reported as 95 to 97 °C. Work on `O=c1cc(-c2ccccc2)sc2c1[nH]c1ccccc12` yielded a melting point of 271 to 272 °C. `Cc1cc(C#N)cc(C)c1OCCCc1ccc(CO)o1` showed a melting point of 37 to 38 °C. With `COC(=O)C1CC(c2ccncc2)CCC1=O` (stereo not given) the melting point was 82 to 83 °C. `OCC1Cc2cc(Cl)cc(C3CCCCC3)c2O1` (stereo not given) showed a melting point of 67 to 69 °C. With `CCOc1nc(-c2ccc(F)cc2C)c2ccc(=O)n(-c3ccccc3F)c2n1` the melting point was 137 to 139 °C. `O=C(O)C1CCN2c3ccccc3Cc3ccccc3C2C1` (stereo not given) gave a melting point of 207 to 209 °C. Compound `O=C(Nc1nccs1)C(CC1CCCC1)c1cccc(S(=O)(=O)C(F)(F)F)c1` (stereo not given) has a melting point of 61 to 64 °C. Compound `CCCCCn1ncc2c(N)c(C(N)=O)cnc21` has a melting point of 201 to 202 °C. `O=C(Nc1ccccc1)c1ccc(F)c(NC(=S)Nc2cc(Cl)cc(Cl)c2)c1` gave a melting point of 173 to 175 °C. `CON(C)C(=O)Nc1c(C(=O)c2cccc(Cl)c2)[nH]c2cc(Cl)ccc12` showed a melting point of 167 to 169 °C. Compound `Cc1oc(-c2ccccc2)nc1COc1ccc(CON=C(CCC(=O)O)c2ccc(Oc3ccccc3)cc2)cc1` has a melting point of 131 to 132 °C. `CCOC(=O)N1CCN(C2=C(Cl)C(=O)c3nsnc3C2=O)CC1` showed a melting point of 152 to 154 °C. In the case of `CCn1c(=N)c(-c2ccc3ccccc3c2)cc2cnc(Nc3ccccc3)nc21`, the melting point is reported as 236 to 242 °C. `O=S(=O)(c1ccc(-c2ccc3cnc(Nc4ccc(N5CCOCC5)cc4)nn23)cc1)N1CCCC1` showed a melting point of 182 to 184 °C. Work on `OCC1OC(n2cnc3c(OCC4CC4)ncnc32)CC1F` (stereo not given) yielded a melting point of 100 °C. For `CSC(=NC(=O)N(C)C)N(C)C(=O)Nc1ccccc1`, the melting point was 74 to 77 °C. Work on `CCC(C)(C)N=C(NC#N)Nc1cc(F)cc(Cl)c1` yielded a melting point of 130 to 131 °C. With `CC(=O)Nc1nc(-c2cccnc2)c(-c2ccccc2)s1` the melting point was 264 to 267 °C. For `CC(C)Cn1c(CO)nc2c(N)nc3cccnc3c21`, the melting point was 226 to 228 °C. Compound `CC(C)CC(=O)Nc1ccc2oc3c(c2c1)CCC3` has a melting point of 162 to 163 °C. `CCOCCNC(=O)c1ccc(CN2C(=O)C3(COc4cc5c(cc43)CCO5)c3ccccc32)cc1` (stereo not given) gave a melting point of 84 to 85 °C. For `CN(Cc1ccc(NC(=O)C2=Cc3cc(OCc4ccccc4Cl)ccc3S(=O)(=O)CC2)cc1)C1CCOCC1`, the melting point was 205 to 207 °C. For `CC(C)(C)Sc1cccc(-c2nc(=O)c3ccccc3s2)n1`, the melting point was 153 to 154 °C. In the case of `Cn1c2ccc(Cl)cc2c(=O)n2nc(C(=O)O)cc12`, the melting point is reported as 280 °C. With `Cc1cccc2cc(C(=O)Cn3ccnc3)ccc12` the melting point was 264 °C. With `COc1ccc(-c2nc3cc(OC)cc(C#N)c3o2)cc1` the melting point was 180 to 183 °C. With `OC1C(COC2CC2)OC(n2cnc3c(NCc4cccc(I)c4)nc(Cl)nc32)C1O` (stereo not given) the melting point was 94 to 96 °C. Work on `CCCCn1ncc2c1nc(N)n1nc(-c3ccco3)nc21` yielded a melting point of 157 to 158 °C. In the case of `Cc1[nH]c(=O)c(C#N)cc1C(=O)n1ccnc1`, the melting point is reported as 237 to 238 °C. Compound `O=C(c1ccccc1)c1ccc(OCCO)cc1` has a melting point of 82 °C. Work on `CCc1cc(Cl)cc2c1OC(C(F)(F)F)C(C(=O)O)=C2` (stereo not given) yielded a melting point of 197 to 199 °C. Compound `N#CC1=Cc2ccccc2C(N2CCN(N)CC2)c2ccccc21` (stereo not given) has a melting point of 137 to 146 °C. With `CC#CCOc1cc(OCc2cccc(F)c2F)ncn1` the melting point was 84.9 °C. `CCCCCCOc1c2c(c(-c3ccc4c(c3)OCO4)c3c4c(ccc13)OCO4)C(=O)NC2=O` gave a melting point of 222 to 223 °C. `COc1cc2oc(=O)c3c(c2cc1OC)CCN(CC(C)=O)C3` gave a melting point of 168 to 172 °C. Work on `Cc1cccc(NC(=O)N(C)C)c1` yielded a melting point of 124 to 127 °C. Work on `Cc1c(F)cccc1C(=O)Nc1ccc(C(=O)N2CCCC(=O)c3sccc32)cc1` yielded a melting point of 200 to 202 °C. Compound `Cc1nc2c3c(c(C(=O)NC4CC4)cc2n1C)CCC(c1ccccc1)O3` (stereo not given) has a melting point of 312 to 313 °C. Compound `CCCc1c2nc(C(=O)OC)cc(N)c2cc2c(=O)cc(C(=O)OCC)oc12` has a melting point of 267 to 270 °C. Work on `CCOC(=O)c1c(CC)nn(C)c1NC(=O)Cc1ccc(OC)cc1` yielded a melting point of 112 to 113 °C. Compound `CCOC(=O)c1c2n(c3cc(N4CCN(CC(C)=O)CC4)c(F)cc3c1=O)C(C)S2` (stereo not given) has a melting point of 196 to 200 °C. `CCOC(=O)c1cc(NC(=O)C(CS)Cc2ccc(Cl)cc2)c[nH]1` (stereo not given) showed a melting point of 140 to 143 °C. In the case of `CC(=O)OC(C(=O)N(C)c1ccc(N(C)C(=O)C(OC(C)=O)c2ccccc2)cc1)c1ccccc1` (stereo not given), the melting point is reported as 180 to 183 °C. `CCn1cc(C(=O)NCc2ccc(Cl)cc2)c(=O)c2cc(CCl)sc21` gave a melting point of 199 to 200 °C. `CCCC(=O)N1CCC(C(=O)OC2c3ccccc3C(=O)N2c2ccc3ccc(Cl)nc3n2)CC1` (stereo not given) gave a melting point of 165 °C. For `CCOC(=O)/C=C/c1ccc(-c2ccc(O)c(C34CC5CC(CC(C5)C3)C4)c2)c(C)c1`, the melting point was 193 to 195 °C. With `N#Cc1cc(F)c(N2CCN(Cc3cnc4c(c3)NC(=O)[C@@H]3CCCN43)CC2)cc1F` the melting point was 224 to 227 °C. Compound `CC(=NNc1ccc(C2=NNC(=O)CC2C)cc1)c1cc(O)cc(O)c1` (stereo not given) has a melting point of 162 to 166 °C. For `O=C1C(=O)c2ccccc2C2=C1SCC1(CCN(CC(O)COc3ccc(F)cc3)CC1)O2` (stereo not given), the melting point was 174 to 175 °C. Compound `COn1c(C)nc(N2CCc3ccccc3CC2)c(C#N)c1=O` has a melting point of 144 to 145 °C. Work on `C=CCOC(=O)c1ccc(-c2ccc3cc(OCCCCC(=O)OCC)c(C45CC6CC(CC(C6)C4)C5)cc3c2)cc1` yielded a melting point of 117 to 118 °C. In the case of `O=C(Cc1ccc(Cl)cc1)NC1N=C(c2ccccc2)c2ccccc2NC1=O` (stereo not given), the melting point is reported as 238 to 240 °C.
